# Experimental data published in patent US20240082212A1, “USE OF MDMA FOR TREATMENT OF STRESS-RELATED DISORDERS” (priority 2022, published 2024).
# “Also recorded” adds a separate entry of the source.
# Assays:
# CD (Sprague Dawley) rats [1] = experiment: Rat functional observation battery (FOB) neurobehavioral evaluation after cumulative SC dosing; assay type: in vivo
# Protocol: The observations were assessed through a rat functional observation battery (FOB) and continuous physiological measurements on the day of cumulative dosing, which are provided in further detail below.
# (§1) Methods. A total of 42 adult male CD® (Sprague Dawley) rats (Charles River Laboratories) were surgically implanted with DSI radiotelemetry devices by personnel at Charles River Laboratories Raleigh, NC, per their test site SOPs. Telemetry devices supported continuous recording of temperature, activity, blood pressure and heart rate. Telemeterized rats were shipped to the Charles River Laboratories testing facility (Mattawan, MI) and acclimated to the environment for at least 1 week prior to experimentation. Animals were pair-housed in solid bottom cages with nonaromatic bedding. On the dosing day, animals were singly housed and then returned to the paired cohort following the dosing/telemetry recording phase. Diet (Lab Diet® Certified Rodent Diet #5CR4) and tap water via an automatic water system were available ad libitum, except during designated procedures. Temperature and humidity were maintained according to the Testing Facility SOP. Animals were randomized into treatment groups using a standard, by weight, measured value randomization procedure. Body weight was determined for each rat prior to dosing.
# (§2) As illustrated in the Table, a total of 36 rats were included in the study. The vehicle and 2 test article doses were administered in a volume of 1 mL/kg to each of 3 groups of n=12 telemeterized rats via subcutaneous injection four times on a given day, followed by neurobehavioral evaluations. This series was repeated 3 times on study. Each group received all 3 dose levels of the applicable test or control article in ascending order with a 1-week washout between dose levels.
# (§3) Mortality/cage side clinical observations were conducted for all study animals at least twice daily beginning upon receipt through termination, except on days of receipt and termination where frequency was at least once daily. Detailed clinical observations were conducted for all study animals prior to each of the four cumulative doses in a series. Individual body weights were conducted for all study animals at transfer, prior to randomization, on the day of dosing on each of the 3 cycles of dosing. The body weights recorded at transfer and prior to randomization are not reported but are maintained in the study file. Veterinary care was available throughout the course of the study, and animals were examined by the veterinary staff as needed based on clinical signs or other changes. All animals were provided with HydroGel the night prior to their respective dosing days to potentially mitigate any animal welfare issues related to fluid loss/dehydration.
# Neurobehavioral evaluations (blinded) were conducted for all study animals 1 hour following the last (4th) cumulative dose of the series. The neurobehavioral parameters evaluated included: activity measurements (arousal/alertness, posture/body carriage, stereotypy, rearing, and appearance), autonomic measurements (exophthalmus, lacrimation, erected fur, pupil response, salivation, defecation, and palpebral closure/ptosis), excitability measurements (vocalizations, startle response, ease of removal, handling reactivity, and convulsions), neuromuscular measurements (gait/mobility, grip strength/response, air righting reflex, tremor, and body tone), physiological measurements (respiration and body temperature), and sensorimotor measurements (touch response/tactile reflex and thermal response).
# CD (Sprague Dawley) rats [2] = experiment: Rat telemetry: heart rate, blood pressure, body temperature, activity after cumulative SC dosing; assay type: in vivo; settings: for Rank Order Blood Pressures (Systolic, Diastolic, and Mean Arterial) Effects / Rank Order Body Temperature Effects / Rank Order General Activity Effects / Rank Order Heart Rate Measurement Effects: telemetry, cumulative SC dosing, dose groups stated in the value
# Description: as §1, §2, §3
# Telemetry monitoring was conducted for all animals 2 hours prior to dosing and through to 7.5 hours following the last (4th) cumulative dose of each series, which included continuous data collection of body temperature, activity, heart rate, and blood pressure (systolic, diastolic, and mean arterial) using telemetry.
# The total period of time over which the statistical analyses were conducted encompassed the entire dosing period for all animals (i.e., Dose 1 through 7.5 hour post-4th dose) in an effort to draw conclusions regarding the effects of the dosing procedure and cumulative changes by allowing comparisons between the cumulative dosing periods. The following statistical analyses were performed for each analysis segment.
# All time-series data comparisons conducted via statistical analysis are relative to the control treatment and are based on the LSMean values. Additionally, the change values used for the statistical analysis were calculated using a baseline of the 2 hours of pre-dose data, prior to the first compound injection of the series. The raw change values were analyzed.
# [3] = 1 h after last of 4 hourly SC injections, R-MDMA and racemic MDMA 10, 20 mg/kg/day, S-MDMA 5, 10 mg/kg/day
# [4] = 1 h after last of 4 hourly SC injections, racemic MDMA 10, 20 mg/kg/day, S-MDMA 5, 10 mg/kg/day
# [5] = FOB, cumulative SC dosing, dose groups stated in the value, listed as Rac-MDMA
# [6] = FOB, cumulative SC dosing, dose groups stated in the value, listed as Rac.-MDMA
# [7] = maximum change, R-MDMA and racemic MDMA 10, 20 mg/kg/day, S-MDMA 5, 10 mg/kg/day, 4 hourly SC injections
# [8] = racemic MDMA 20 mg/kg/day, S-MDMA 10 mg/kg/day, approximate
smiles,measurement,setting,value
"CNC(C)Cc1ccc2c(c1)OCO2 (racemic) [Racemic MDMA, 3,4-methylenedioxymethamphetamine]",arousal/alertness and rearing,CD (Sprague Dawley) rats [1]; [3],general increase in overall levels of arousal/alertness and rearing
same,ease of removal from the home cage and handling reactivity (excitability),CD (Sprague Dawley) rats [1]; [3],Dose-dependent increased difficulty in removal from the home cage and increased handling reactivity
same,forelimb grip strength,CD (Sprague Dawley) rats [1]; [3],dose-dependent statistically significant decreases in forelimb grip strength
same,salivation and erected fur (autonomic),CD (Sprague Dawley) rats [1]; [3],Dose-dependent increased salivation and erected fur
same,unkempt appearance,CD (Sprague Dawley) rats [1]; [3],increased incidence of unkempt appearance in a dose-dependent manner
same,general gait/mobility changes,CD (Sprague Dawley) rats [1]; [4],General gait/mobility changes were only observed
same,respiration,CD (Sprague Dawley) rats [1]; [4],Rapid respiration was noted
same,Rank Order Activity Measurement Effects,CD (Sprague Dawley) rats [1]; [5],Rac-MDMA (0 mg/kg/day) < Rac-MDMA (20 mg/kg/day) < Rac-MDMA (10 mg/kg/day); also recorded: S-MDMA (10 mg/kg/day) = R-MDMA (10 mg/kg/day) = Rac-MDMA (10 mg/kg/day)
same,Rank Order Autonomic Measurement Effects,CD (Sprague Dawley) rats [1]; [5],R-MDMA (20 mg/kg/day) < S-MDMA (10 mg/kg/day) < Rac-MDMA (20 mg/kg/day); also recorded: Rac-MDMA (0 mg/kg/day) < Rac-MDMA (10 mg/kg/day) < Rac-MDMA (20 mg/kg/day); also recorded: R-MDMA (10 mg/kg/day) < S-MDMA (10 mg/kg/day) = Rac-MDMA (20 mg/kg/day)
same,Rank Order Excitability Measurement Effects,CD (Sprague Dawley) rats [1]; [5],S-MDMA (5 mg/kg/day) < Rac-MDMA (10 mg/kg/day); also recorded: R-MDMA (20 mg/kg/day) = S-MDMA (10 mg/kg/day) < Rac-MDMA (20 mg/kg/day); also recorded: Rac-MDMA (0 mg/kg/day) < Rac-MDMA (10 mg/kg/day) < Rac-MDMA (20 mg/kg/day); also recorded: R-MDMA (10 mg/kg/day) < S-MDMA (10 mg/kg/day) < Rac-MDMA (20 mg/kg/day)
same,Rank Order Neuromuscular Measurement Effects,CD (Sprague Dawley) rats [1]; [5],R-MDMA (20 mg/kg/day) = S-MDMA (10 mg/kg/day) < Rac-MDMA (20 mg/kg/day); also recorded: Rac-MDMA (0 mg/kg/day) < Rac-MDMA (10 mg/kg/day) < Rac-MDMA (20 mg/kg/day); also recorded: R-MDMA (10 mg/kg/day) < S-MDMA (10 mg/kg/day) < Rac-MDMA (20 mg/kg/day)
same,Rank Order Physiological Measurement Effects,CD (Sprague Dawley) rats [1]; [5],R-MDMA (20 mg/kg/day) < S-MDMA (10 mg/kg/day) = Rac-MDMA (20 mg/kg/day); also recorded: Rac-MDMA (0 mg/kg/day) < Rac-MDMA (10 mg/kg/day) < Rac-MDMA (20 mg/kg/day); also recorded: R-MDMA (10 mg/kg/day) < S-MDMA (10 mg/kg/day) = Rac-MDMA (20 mg/kg/day)
same,Rank Order Sensorimotor Measurement Effects,CD (Sprague Dawley) rats [1]; [5],S-MDMA (5 mg/kg/day) < Rac-MDMA (10 mg/kg/day) < R-MDMA (10 mg/kg/day); also recorded: S-MDMA (10 mg/kg/day) < Rac-MDMA (20 mg/kg/day) < R-MDMA (20 mg/kg/day); also recorded: Rac-MDMA (0 mg/kg/day) < Rac-MDMA (10 mg/kg/day) < Rac-MDMA (20 mg/kg/day)
same,Rank Order Activity Measurement Effects,CD (Sprague Dawley) rats [1]; [6],S-MDMA (5 mg/kg/day) < R-MDMA (10 mg/kg/day) < Rac.-MDMA (10 mg/kg/day); also recorded: Rac.-MDMA (20 mg/kg/day) < S-MDMA (10 mg/kg/day) < R-MDMA (20 mg/kg/day); also recorded: Rac.-MDMA (20 mg/kg/day) < S-MDMA (10 mg/kg/day) < R-MDMA (10 mg/kg/day)
same,Rank Order Autonomic Measurement Effects,CD (Sprague Dawley) rats [1]; [6],R-MDMA (10 mg/kg/day) < S-MDMA (5 mg/kg/day) < Rac.-MDMA (10 mg/kg/day)
same,Rank Order Excitability Measurement Effects,CD (Sprague Dawley) rats [1]; [6],R-MDMA (10 mg/kg/day) < S-MDMA (5 mg/kg/day) < Rac.-MDMA (10 mg/kg/day)
same,Rank Order Neuromuscular Measurement Effects,CD (Sprague Dawley) rats [1]; [6],R-MDMA (10 mg/kg/day) < S-MDMA (5 mg/kg/day) < Rac.-MDMA (10 mg/kg/day)
same,Rank Order Physiological Measurement Effects,CD (Sprague Dawley) rats [1]; [6],R-MDMA (10 mg/kg/day) < S-MDMA (5 mg/kg/day) < Rac.-MDMA (10 mg/kg/day)
same,thermal response times,"CD (Sprague Dawley) rats [1]; at levels at least two-fold that of vehicle-treated groups, 1 h after last of 4 hourly SC injections",Statistically significant increases in thermal response times
same,neuromuscular observations,CD (Sprague Dawley) rats [1]; primarily noted at 20 mg/kg/day racemic-MDMA (4 hourly SC injections),"observations of ataxia, hunched posture, and tip-toe walking"
same,hemodynamic parameters (systolic/diastolic/mean arterial blood pressures and heart rate),"CD (Sprague Dawley) rats [2]; 4 hourly SC injections, cumulative doses 5, 10, or 20 mg/kg/day",dose-dependent blood pressure-increasing effects
same,body temperature response,"CD (Sprague Dawley) rats [2]; S-MDMA 5, 10 mg/kg/day, racemic-MDMA 10, 20 mg/kg/day, 4 hourly SC injections",hyperthermic response
same,activity (implanted telemetry devices),"CD (Sprague Dawley) rats [2]; all cumulative doses (5, 10, or 20 mg/kg/day)",Activity-increasing effects
same,blood pressure increase [mean arterial pressure],CD (Sprague Dawley) rats [2]; [7],up to +46%
same,heart rate increase,CD (Sprague Dawley) rats [2]; [7],up to +37%
same,peak body temperatures,"CD (Sprague Dawley) rats [2]; overall mean magnitude of change, 4 hourly SC injections",40.0 °C
same,period of significantly increased body temperature compared to R-MDMA (10 mg/kg/day),CD (Sprague Dawley) rats [2]; [8],1-4 hours post initiation of dosing
same,period of significantly increased heart rate compared to R-MDMA (10 mg/kg/day),CD (Sprague Dawley) rats [2]; [8],3-10 hours post initiation of dosing
same,period of significantly increased mean arterial blood pressure compared to R-MDMA (10 mg/kg/day),CD (Sprague Dawley) rats [2]; [8],1-3 hours post initiation of dosing
same,period of significantly increased systolic blood pressure compared to R-MDMA (10 mg/kg/day),CD (Sprague Dawley) rats [2]; [8],1-3 hours post initiation of dosing
same,"Rank Order Blood Pressures (Systolic, Diastolic, and Mean Arterial) Effects",CD (Sprague Dawley) rats [2]; listed as Rac-MDMA,R-MDMA (20 mg/kg/day) < S-MDMA (10 mg/kg/day) < Rac-MDMA (20 mg/kg/day); also recorded: Rac-MDMA (0 mg/kg/day) < Rac-MDMA (10 mg/kg/day) < Rac-MDMA (20 mg/kg/day); also recorded: R-MDMA (10 mg/kg/day) < S-MDMA (10 mg/kg/day) < Rac-MDMA (20 mg/kg/day)
same,Rank Order Body Temperature Effects,CD (Sprague Dawley) rats [2]; listed as Rac-MDMA,R-MDMA (20 mg/kg/day) < S-MDMA (10 mg/kg/day) < Rac-MDMA (20 mg/kg/day); also recorded: Rac-MDMA (0 mg/kg/day) < Rac-MDMA (10 mg/kg/day) < Rac-MDMA (20 mg/kg/day); also recorded: R-MDMA (10 mg/kg/day) < S-MDMA (10 mg/kg/day) < Rac-MDMA (20 mg/kg/day)
same,Rank Order General Activity Effects,CD (Sprague Dawley) rats [2]; listed as Rac-MDMA,R-MDMA (20 mg/kg/day) < S-MDMA (10 mg/kg/day) < Rac-MDMA (20 mg/kg/day); also recorded: Rac-MDMA (0 mg/kg/day) < Rac-MDMA (10 mg/kg/day) < Rac-MDMA (20 mg/kg/day); also recorded: R-MDMA (10 mg/kg/day) < S-MDMA (10 mg/kg/day) < Rac-MDMA (20 mg/kg/day)
same,Rank Order Heart Rate Measurement Effects,CD (Sprague Dawley) rats [2]; listed as Rac-MDMA,R-MDMA (20 mg/kg/day) < S-MDMA (10 mg/kg/day) < Rac-MDMA (20 mg/kg/day); also recorded: Rac-MDMA (0 mg/kg/day) < Rac-MDMA (10 mg/kg/day) < Rac-MDMA (20 mg/kg/day); also recorded: R-MDMA (10 mg/kg/day) < S-MDMA (10 mg/kg/day) < Rac-MDMA (20 mg/kg/day)
same,"Rank Order Blood Pressures (Systolic, Diastolic, and Mean Arterial) Effects",CD (Sprague Dawley) rats [2]; listed as Rac.-MDMA,R-MDMA (10 mg/kg/day) < S-MDMA (5 mg/kg/day) < Rac.-MDMA (10 mg/kg/day)
same,Rank Order Body Temperature Effects,CD (Sprague Dawley) rats [2]; listed as Rac.-MDMA,R-MDMA (10 mg/kg/day) < S-MDMA (5 mg/kg/day) < Rac.-MDMA (10 mg/kg/day)
same,Rank Order General Activity Effects,CD (Sprague Dawley) rats [2]; listed as Rac.-MDMA,R-MDMA (10 mg/kg/day) < S-MDMA (5 mg/kg/day) < Rac.-MDMA (10 mg/kg/day)
same,Rank Order Heart Rate Measurement Effects,CD (Sprague Dawley) rats [2]; listed as Rac.-MDMA,R-MDMA (10 mg/kg/day) < S-MDMA (5 mg/kg/day) < Rac.-MDMA (10 mg/kg/day)
